Data set [1] concerns GPR35. Kind of data set: DMR desensitization / antagonism mode against GPR35 agonist-induced DMR in HT29 cells. In kind it is cell-based, human.
The target of the next data set is hERG channel (Homo sapiens, UniProt Q12809). The experiment in a line: Automated patch clamp recording of hERG tail current (IonWorks). The note with it: hERG tail current ratio post/pre-compound, 50 uM.
The target of data set [2] is T1, GPR35 (Homo sapiens, UniProt Q9HC97).
T1 construct: myc; expressed in transfected cells; host or cells: HEK293, transient co-transfection (Lipofectamine LTX)
T1 sequence (Q9HC97 whole entry): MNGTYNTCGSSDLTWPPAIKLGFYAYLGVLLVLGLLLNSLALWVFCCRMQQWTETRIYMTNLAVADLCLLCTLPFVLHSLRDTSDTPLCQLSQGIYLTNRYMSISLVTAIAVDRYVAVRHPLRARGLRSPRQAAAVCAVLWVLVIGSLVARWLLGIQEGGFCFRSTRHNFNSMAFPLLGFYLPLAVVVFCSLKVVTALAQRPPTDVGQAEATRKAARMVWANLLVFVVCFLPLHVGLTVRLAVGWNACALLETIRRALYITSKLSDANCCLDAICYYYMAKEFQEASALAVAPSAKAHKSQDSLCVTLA
Kind of data set: Ca2+ mobilization assay (Fluo-4) in HEK-GPR35-Gqo5 cells. The class given is cell-based. The note with it: for Ca2+ moblization (HEK-GPR35-Gqo5): HEK293 cells co-expressing GPR35 and Gqo5, Fluo-4, compounds 10 μM. On the technique in general: Calcium assays in cells follow changes in intracellular calcium, usually with a dye or a luminescent sensor.

Where [3] appears, read: HT29 cells pretreated with compound, then GPR35 agonist.
The mark [4] stands for this setting: HT29, zaprinast 400 nM, U73122, cytochalasin D, Y27632 10 micromolar, CTX 1 microgram/ml, PTX 100 nanogram/ml.

38 compounds from US20120022116A1, “COMPOSITIONS AND METHODS FOR THE TREATMENT OF PATHOLOGICAL CONDITION(S) RELATED TO GPR35 AND/OR GPR35-HERG COMPLEX” (priority 2010, published 2012) can be followed below.

Entries after “also recorded” stand apart in the source; their conditions may differ. Like-named read-outs stand apart in the source and are kept apart here.

hERG channel, sequence (Q12809 whole entry): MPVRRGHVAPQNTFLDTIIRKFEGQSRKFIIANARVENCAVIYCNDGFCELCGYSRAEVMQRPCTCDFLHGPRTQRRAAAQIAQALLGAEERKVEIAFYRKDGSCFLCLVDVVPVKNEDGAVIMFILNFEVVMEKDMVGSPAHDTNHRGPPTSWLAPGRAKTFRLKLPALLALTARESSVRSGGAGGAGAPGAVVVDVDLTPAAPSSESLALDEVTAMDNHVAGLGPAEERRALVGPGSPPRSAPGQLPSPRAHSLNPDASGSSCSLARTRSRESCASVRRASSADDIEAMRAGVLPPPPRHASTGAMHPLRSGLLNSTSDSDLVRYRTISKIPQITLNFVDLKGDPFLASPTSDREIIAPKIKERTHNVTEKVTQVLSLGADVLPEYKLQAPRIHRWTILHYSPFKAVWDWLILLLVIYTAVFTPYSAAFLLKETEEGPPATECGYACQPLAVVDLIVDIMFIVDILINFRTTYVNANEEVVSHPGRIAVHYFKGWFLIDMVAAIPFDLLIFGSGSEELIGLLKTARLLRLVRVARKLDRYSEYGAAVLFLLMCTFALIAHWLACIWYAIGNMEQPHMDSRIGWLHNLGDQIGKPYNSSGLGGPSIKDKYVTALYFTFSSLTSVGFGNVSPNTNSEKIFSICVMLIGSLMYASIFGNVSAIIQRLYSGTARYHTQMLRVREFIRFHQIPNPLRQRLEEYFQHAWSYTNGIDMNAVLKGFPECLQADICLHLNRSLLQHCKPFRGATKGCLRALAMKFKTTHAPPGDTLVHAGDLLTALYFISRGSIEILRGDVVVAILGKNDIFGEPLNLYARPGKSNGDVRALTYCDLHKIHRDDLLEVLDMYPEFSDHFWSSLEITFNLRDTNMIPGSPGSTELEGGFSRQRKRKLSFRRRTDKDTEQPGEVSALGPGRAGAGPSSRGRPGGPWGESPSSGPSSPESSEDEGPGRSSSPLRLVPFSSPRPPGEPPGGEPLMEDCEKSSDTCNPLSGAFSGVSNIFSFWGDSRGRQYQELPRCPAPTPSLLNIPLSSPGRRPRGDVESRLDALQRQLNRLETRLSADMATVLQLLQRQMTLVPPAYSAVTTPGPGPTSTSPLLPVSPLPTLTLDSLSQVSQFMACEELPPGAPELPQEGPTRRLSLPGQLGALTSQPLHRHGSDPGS
GPR35, sequence (Q9HC97 whole entry): as the sequence (Q9HC97 whole entry) above

For `N#CC(C#N)=C(N)/C(C#N)=C/c1ccc(O)cc1` [AG112], the “Desenstization to GPR35 agonist” value with GPR35 [1] (setting [3]) was “desenstized”.
As for `N#CC(C#N)=Cc1ccc([N+](=O)[O-])c(O)c1` [AG126], in the data set with GPR35 [1] (setting [3]), the “Desenstization to GPR35 agonist” value was “desenstized”. Further, the “Electrophysiology (HEK-hERG)” value on hERG channel is “inactive”.
Taken in the same sequence, the figures for `N#CC(=Cc1ccc2[nH]ccc2c1)C(N)=C(C#N)C#N` [AG370] were “desenstized” and “inactive”.
For the compound `N#C/C(=C/c1ccc(O)c(O)c1)C(=O)NCc1ccccc1` [AG490], the “Desenstization to GPR35 agonist” value in the data set with GPR35 [1] (setting [3]) is listed as “desenstized”.
Same read-out and setting: as for `COc1cc(/C=C(\C#N)C(N)=O)cc(CSc2nc3ccccc3s2)c1O` [AG825], the entry is “desenstized”.
Still for that read-out and setting: as for `CC(C)(C)c1cc(C=C(C#N)C#N)cc(Br)c1O` [AG1024], the entry is “desenstized”.
In the case of `N#CC(C#N)=Cc1cc(O)c(O)c([N+](=O)[O-])c1` [AG1288], the “Desenstization to GPR35 agonist” value with GPR35 [1] (setting [3]) is “desenstized”.
`CCCCc1ccc(C2(C)OC(=C(C#N)C#N)C(C#N)=C2C)cc1` (stereo not drawn) [Compound 01, 2-dicyanomethylene-3-cyano-4,5-dimethyl-5-[4′-n-butylphenyl]-2,5-dihydrofuran]: in the data set on GPR35 [1] (setting [3]), the “Desenstization to GPR35 agonist” value is “desenstized”. For the same compound, the “Electrophysiology (HEK-hERG)” value on hERG channel was “inactive”. The “Ca2+ moblization (HEK-GPR35-Gqo5)” value on GPR35 [2] was “inactive”.
Turning to `CC1=C(C#N)C(=C(C#N)C#N)OC1(C)c1ccc(F)cc1F` (stereo not drawn) [Compound 02, 2-dicyanomethylene-3-cyano-4,5-dimethyl-5-[2′,4′-difluorophenyl]-2,5-dihydrofuran], the “Desenstization to GPR35 agonist” value with GPR35 [1] (setting [3]) is “desenstized”. Besides, the “Electrophysiology (HEK-hERG)” value at hERG channel was “inactive”. Moreover, the “Ca2+ moblization (HEK-GPR35-Gqo5)” value at GPR35 [2] was “active”.
On the same counts, the results for `CC1=C(C#N)C(=C(C#N)C#N)OC12CCCCC2` [Compound 03, 2-dicyanomethylene-3-cyano-4-methyl-5-spiro-cyclohexyl-2,5-dihydrofuran] are “desenstized”, “inactive” and “inactive”.
Taken in the same sequence, the figures for `CC1=C(C#N)C(=C(C#N)C#N)OC1(c1ccccc1)C(F)(F)F` (stereo not drawn) [Compound 04, 2-dicyanomethylene-3-cyano-4-methyl-5-phenyl-5-perfluoromethyl-2,5-dihydrofuran] were “desenstized”, “activator” and “active”.
Regarding `CC1=C(C#N)C(=C(C#N)C#N)OC12c1ccccc1-c1ccccc12` [Compound 05, 2-dicyanomethylene-3-cyano-4-methyl-5-spiro-fluorenylidine-2,5-dihydrofuran], the “Desenstization to GPR35 agonist” value with GPR35 [1] (setting [3]) is reported as “desenstized”. For the same compound, at hERG channel, the “Electrophysiology (HEK-hERG)” value was “inactive”. The “Ca2+ moblization (HEK-GPR35-Gqo5)” value on GPR35 [2] was “inactive”.
On to `CC1=C(C#N)C(=C(C#N)C#N)OC1(C)c1ccc(Cl)c(Cl)c1Cl` (stereo not drawn) [Compound 06, 2-dicyanomethylene-3-cyano-4,5-dimethyl-5-[2′,3′,4′-trichlorophenyl]-2,5-dihydrofuran], for which the “Desenstization to GPR35 agonist” value in the data set with GPR35 [1] (setting [3]) is “desenstized”. Besides, the “Electrophysiology (HEK-hERG)” value at hERG channel was “inactive”. Further, the “Ca2+ moblization (HEK-GPR35-Gqo5)” value on GPR35 [2] was “inactive”.
`CC1=C(C#N)C(=C(C#N)C#N)OC1(C)c1ccc(Cl)c(Cl)c1` (stereo not drawn) [Compound 07, 2-dicyanomethylene-3-cyano-4,5-dimethyl-5-[3′,4′-dichlorophenyl]-2,5-dihydrofuran]: the “Desenstization to GPR35 agonist” value in the data set on GPR35 [1] (setting [3]) was “desenstized”. In addition, on hERG channel, the “Electrophysiology (HEK-hERG)” value is “inactive”. In addition, the “Ca2+ moblization (HEK-GPR35-Gqo5)” value on GPR35 [2] is on record as “active”.
Regarding `CC1=C(C#N)C(=C(C#N)C(N)=C(C#N)C#N)OC1(C)C` [Compound 08, 2-cyano-2-(1-amino-2,2-dicyanovinyl)methylene-3-cyano-4,5,5-trimethyl-2,5-dihydrofuran], in the data set on GPR35 [1] (setting [3]), the “Desenstization to GPR35 agonist” value is listed as “desenstized”. Also, on hERG channel, the “Electrophysiology (HEK-hERG)” value was “inactive”. At GPR35 [2], the “Ca2+ moblization (HEK-GPR35-Gqo5)” value is on record as “active”.
Regarding `CC1=C(C#N)C(=C(C#N)C#N)OC1(C)c1c(F)c(F)c(F)c(F)c1F` (stereo not drawn) [Compound 09, 2-dicyanomethylene-3-cyano-4,5-dimethyl-5-[2′3′4′5′6′-pentafluorophenyl]-2,5-dihydrofuran], the “Desenstization to GPR35 agonist” value in the data set with GPR35 [1] (setting [3]) was “desenstized”. Also, the “Electrophysiology (HEK-hERG)” value on hERG channel was “inactive”. Besides, the “Ca2+ moblization (HEK-GPR35-Gqo5)” value on GPR35 [2] is recorded as “active”.
For the compound `CC1=C(C#N)C(=C(C#N)C#N)OC1(C)C` [Compound 10, 2-dicyanomethylene-3-cyano-4,5,5-trimethyl-2,5-dihydrofuran], the “Desenstization to GPR35 agonist” value in the data set on GPR35 [1] (setting [3]) was “desenstized”. For the same compound, at hERG channel, the “Electrophysiology (HEK-hERG)” value is “inactive”. Moreover, the “Ca2+ moblization (HEK-GPR35-Gqo5)” value at GPR35 [2] was “active”.
On the same counts, the results for `O=C(O)c1cc2sccc2s1` [Compound 11, thieno[3,2-b]thiophene-2-carboxylic acid] are “desenstized”, “inactive” and “inactive”.
`Cc1c(C(=O)O)sc2ccsc12` [Compound 12, 3-methyl-thieno[3,2-b]thiophene-2-carboxylic acid]: the “Desenstization to GPR35 agonist” value in the data set on GPR35 [1] (setting [3]) is “desenstized”. In addition, the “Electrophysiology (HEK-hERG)” value at hERG channel was “inactive”. Moreover, the “Ca2+ moblization (HEK-GPR35-Gqo5)” value on GPR35 [2] is listed as “active”.
On the same counts, the results for `CCCCCCc1csc2cc(C(=O)O)sc12` [Compound 14, 6-hexyl-thieno[3,2-b]thiophene-2-carboxylic acid] are “desenstized”, “blocker” and “active”.
Turning to `CCCCCCCCCCC(=O)c1sc2c(Br)csc2c1Br` [Compound 15, 3,6-dibromo-thieno[3,2-b]thiophene-2-undecanone], the “Electrophysiology (HEK-hERG)” value at hERG channel is “inactive”.
In the case of `CCCCCCCCCCCc1c(C(=O)O)sc2c(Br)csc12` [Compound 16, 3-n-undecyl-6-bromo-thieno[3,2-b]thiophene-2-carboxylic acid], the “Desenstization to GPR35 agonist” value in the data set with GPR35 [1] was “desenstized”. Also, at hERG channel, the “Electrophysiology (HEK-hERG)” value is “inactive”.
On the same counts, the results for `CCCCCCCCCCCCCc1c(C(=O)O)sc2c(Br)csc12` [Compound 17, 3-n-tridecyl-6-bromo-thieno[3,2-b]thiophene-2-carboxylic acid] are “desenstized” and “activator”.
As for `CCCCCCCCCCc1c(C(=O)O)sc2c(Br)csc12` [Compound 18, 3-n-decyl-6-bromo-thieno[3,2-b]thiophene-2-carboxylic acid], the “Desenstization to GPR35 agonist” value in the data set on GPR35 [1] (setting [3]) is on record as “desenstized”. The “Electrophysiology (HEK-hERG)” value at hERG channel is recorded as “activator”.
Taken in the same sequence, the figures for `CCCCCCCCCCCCCCCc1c(C(=O)O)sc2c(Br)csc12` [Compound 19, 3-n-pentadecyl-6-bromo-thieno[3,2-b]thiophene-2-carboxylic acid] were “desenstized” and “activator”.
With `COc1ccc2c(c1)CC[C@@H]1[C@@H]2CC[C@]2(C)[C@@H](NCCCCCCN3C(=O)C=CC3=O)CC[C@@H]12` [Compound U73122, U73122], the “effect of pathway agent pretreatment on the zaprinast DMR signal” value (from here on “effect of pathway agent pretreatment”) in the data set on GPR35 [1] (setting [4]) is recorded as “insensitive”. Also, the “effect of pathway agent on the 6-bromo-3-methylthieno[3,2-b]thiophene-2-carboxylic acid DMR” value in the data set on GPR35 [1] (HT29 cells) is given as “insensitive”.
Turning to `C[C@@H](N)[C@H]1CC[C@H](C(=O)Nc2ccncc2)CC1` [Compound Y27632, Y27632], in the data set on GPR35 [1] (setting [4]), the “effect of pathway agent pretreatment” value is listed as “partially attenuated”. The “effect of pathway agent on the 6-bromo-3-methylthieno[3,2-b]thiophene-2-carboxylic acid DMR” value in the data set on GPR35 [1] (HT29 cells) is “partially attenuated”.
For the compound `O=C(O)Cc1ccccc1Nc1c(Cl)cccc1Cl` [Diclofenac], in the data set with GPR35 [1] (setting [3]), the “Desenstization to GPR35 agonist” value is “desenstized”. The “Ca2+ moblization (HEK-GPR35-Gqo5)” value at GPR35 [2] was “inactive”.
On to `CCN(CC)C(=O)/C(C#N)=C/c1cc(O)c(O)c([N+](=O)[O-])c1` [Entacapone], for which, at hERG channel, the “Electrophysiology (HEK-hERG)” value is “inactive”.
As to `NS(=O)(=O)c1cc(C(=O)O)c(NCc2ccco2)cc1Cl` [Furosemdie], the “Desenstization to GPR35 agonist” value with GPR35 [1] (setting [3]) was “desenstized”. In addition, the “Ca2+ moblization (HEK-GPR35-Gqo5)” value at GPR35 [2] is listed as “active”. Also, the “Ca2+ mobilization signal in cells co-expressing GPR35 and Gqo5” value on GPR35 [2] (engineered HEK293, 10 μM) was “active”.
As to `O=C(O)c1ccccc1Nc1ccccc1` [N-phenylanthranilic], in the data set with GPR35 [1] (setting [3]), the “Desenstization to GPR35 agonist” value is “desenstized”.
Turning to `CCNc1nc(C)nc2c1cnn2-c1ccc(C)cc1` [NSC1619], the “Desenstization to GPR35 agonist” value with GPR35 [1] (setting [3]) is “inactive”. Besides, the “Electrophysiology (HEK-hERG)” value on hERG channel is “activator”.
Regarding `O=C(O)c1ccccc1Nc1ccc(CCc2ccc(Cl)c(Cl)c2)cc1` [PD-118057], in the data set on GPR35 [1] (setting [3]), the “Desenstization to GPR35 agonist” value was “desenstized”. Moreover, the “Electrophysiology (HEK-hERG)” value on hERG channel is “activator”.
As to `N#CC(C#N)=Cc1ccc(O)c(O)c1` [Tyrphostin 23], the “Desenstization to GPR35 agonist” value with GPR35 [1] (setting [3]) is reported as “desenstized”.
With `N#CC(C#N)=Cc1cc(O)c(O)c(O)c1` [Tyrphostin 25], the “Desenstization to GPR35 agonist” value in the data set on GPR35 [1] (setting [3]) is given as “desenstized”. The “Electrophysiology (HEK-hERG)” value on hERG channel is “inactive”.
As for `C=C1[C@@H](C)[C@H]2[C@H](Cc3ccccc3)NC(=O)[C@]23[C@H](OC(C)=O)/C=C/[C@@](C)(O)C(=O)[C@@H](C)C/C=C/[C@H]3[C@@H]1O` [cytochalasin D], in the data set on GPR35 [1] (setting [4]), the “effect of pathway agent pretreatment” value was “completely attenuated; also recorded: completely block”. Besides, in the data set with GPR35 [1] (HT29 cells), the “effect of pathway agent on the 6-bromo-3-methylthieno[3,2-b]thiophene-2-carboxylic acid DMR” value was “blocked”.
On the same counts, the results for Pertussis toxin are “insensitive” and “insensitive”.
On to cholera toxin, for which, in the data set with GPR35 [1], the “effect of pathway agent on the 6-bromo-3-methylthieno[3,2-b]thiophene-2-carboxylic acid DMR” value is “insensitive” and the “effect of pathway agent pretreatment” value is given as “insensitive”.
